This note sets out measurements from BindingDB's records for PubMed 36971365 (Dongguk University, 2023).

The assay deals with Signal transducer and activator of transcription 3 (Homo sapiens, UniProt P40763). The assay is described as follows: Inhibition of STAT3 (unknown origin) transfected in human HepG2 cells assessed as inhibition of IL-6 induced STAT3 phosphorylation by luciferase reporter gene assay. Background: In a reporter assay the amount or activity of a reporter protein is the signal.
Chain of Signal transducer and activator of transcription 3 (P40763 whole entry): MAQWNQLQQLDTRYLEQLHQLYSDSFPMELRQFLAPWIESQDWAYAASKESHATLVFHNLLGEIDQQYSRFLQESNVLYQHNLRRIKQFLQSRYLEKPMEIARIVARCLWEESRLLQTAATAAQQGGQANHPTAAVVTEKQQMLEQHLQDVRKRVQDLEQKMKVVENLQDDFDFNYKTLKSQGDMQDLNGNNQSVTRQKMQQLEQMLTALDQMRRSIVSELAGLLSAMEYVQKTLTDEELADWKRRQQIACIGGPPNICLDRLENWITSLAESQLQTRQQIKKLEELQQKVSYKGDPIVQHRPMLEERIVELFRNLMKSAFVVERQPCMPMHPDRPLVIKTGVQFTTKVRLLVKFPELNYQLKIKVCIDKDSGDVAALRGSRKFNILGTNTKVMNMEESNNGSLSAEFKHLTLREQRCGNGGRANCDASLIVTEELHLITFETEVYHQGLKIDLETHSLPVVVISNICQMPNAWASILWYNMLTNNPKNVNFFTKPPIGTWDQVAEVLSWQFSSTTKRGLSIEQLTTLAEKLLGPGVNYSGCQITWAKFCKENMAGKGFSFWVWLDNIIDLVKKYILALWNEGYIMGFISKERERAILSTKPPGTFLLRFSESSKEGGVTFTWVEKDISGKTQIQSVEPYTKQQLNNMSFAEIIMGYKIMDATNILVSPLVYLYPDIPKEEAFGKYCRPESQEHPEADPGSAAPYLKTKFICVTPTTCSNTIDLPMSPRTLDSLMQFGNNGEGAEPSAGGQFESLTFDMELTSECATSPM

With `C=C(CCCCC)[C@@H](O)[C@H](C)C(=O)N1C(=O)OC[C@@H]1C(C)C`, the IC50 (usually the concentration needed to halve the response being measured) was determined as 5.9 µM.
